Test results published in patent US20180110824A1, “Macrocyclic Modulators of the Ghrelin Receptor” (Ocera Therapeutics, Inc., priority 2016, published 2018).

Legend:
[1] = tested on: morphine-delayed gastric emptying and gastrointestinal transit in rats; experiment: Opioid (morphine)-delayed gastric emptying and gastrointestinal transit in rats; assay type: in vivo, rat; details: i.v., after morphine 3 mg/kg s.c., FIG. 16B
Excerpt: Opioid analgesics, such as morphine, are well known to delay gastrointestinal transit which is an important side-effect for this class of drugs. The clinical term for this syndrome is opioid bowel dysfunction (OBD). Importantly, patients recovering from abdominal surgery experience post-operative ileus that is further exacerbated by concomitant opioid therapy for post-surgical pain.
• 1. Rats (male, Sprague-Dawley, 250-300 g) are implanted with jugular vein catheters to accommodate dosing of test articles. • 2. Overnight-fasted rats are administered morphine (3 mg/kg s.c.). • 3. […] Radioactivity (^99mTc) in each tissue isolate is measured as a means of measuring the transit of the meal.

[2] = tested on: pulsatile GH release in rat; experiment: Growth hormone response to test compounds in conscious, freely-moving rats; assay type: in vivo
Protocol: The following method is employed to determine the temporal pattern and magnitude of the growth hormone (GH) response to test compounds, administered either systemically or centrally. […] Further results are presented in the Examples below.
Adult male Sprague Dawley rats (225-300 g) were purchased from Charles River Canada (St. Constant, Canada) and individually housed on a 12-h light, 12-h dark cycle (lights on, time: 0600-1800) in a temperature (22±1° C.) and humidity-controlled room. Purina rat chow (Ralston Purina Co., St Louis, Mo.) and tap water were freely available. For these studies, chronic intracerebroventricular (icv) and intracardiac venous cannulas were implanted under sodium pentobarbital (50 mg/kg, ip) anesthesia using known techniques. The placement of the icv cannula was verified by both a positive drinking response to icv carbachol (100 ng/10 μl) injection on the day after surgery and methylene blue dye at the time of sacrifice. After surgery, the rats were placed directly in isolation test chambers with food and water freely available until body weight returned to preoperative levels (usually within 5-7 d). During this time, the rats were handled daily to minimize any stress associated with handling on the day of the experiment. On the test day, food was removed 1.5 h before the start of sampling and was returned at the end. Free moving rats were iv injected with either test sample at various levels (3, 30, 300, 1000 μg/kg) or normal saline at two different time points during a 6-h sampling period. The times 1100 and 1300 were chosen because they reflect typical peak and trough periods of GH secretion, as previously documented. The human ghrelin peptide, (5 μg, Phoenix Pharmaceuticals, Inc., Belmont, Calif.) was used as a positive control in the experiments and was diluted in normal saline just before use. To assess the central actions of test compounds on pulsatile GH release, a 10-fold lower dose of the test sample or normal saline, was administered icv at the same time points, 1100 and 1300. Blood samples (0.35 mL) were withdrawn every 15 min over the 6-h sampling period (time: 1000-1600) from all animals. To document the rapidity of the GH response to the test compound, an additional blood sample was obtained 5 min after each injection. […]
Plasma GH concentrations were measured in duplicate by double antibody RIA using materials supplied by the NIDDK Hormone Distribution Program (Bethesda, Md.), The averaged plasma GH values for 5-6 rats per group are reported in terms of the rat GH reference preparation. […]
• 1. […] Blood samples are drawn at defined, 15-minute intervals throughout the test day and growth hormone (GH) measured directly by radioimmunoassay. • 6. […]

[3] = tested on: rat model of post-operative ileus (POI); experiment: Gastric emptying and intestinal transit in rat model of postoperative ileus; assay type: in vivo
Excerpt: This clinically relevant model for POI is adapted from that of […].; Simmons, R. L.; Bauer, A. J. Surgical manipulation of the gut elicits an intestinal muscularis inflammatory response resulting in postsurgical ileus. Ann. Surg. 1998, 228, 652-663.) Other known models can also be used to study the effect of compounds of the invention. […] Rat, Sprague-Dawley, male, 300 g. • 2. Fasted O/N prior to study. • 1. Isofluorane anaesthesia under sterile conditions. • 2. Midline abdominal incision. • 3. Intestines and caecum were eviscerated and kept moist with saline. • 4. the intestines and caecum were manipulated along its entire length with moist cotton applicators analogous to the 'running of the bowel' in the clinical setting. This procedure was timed to last for 10 min. • 5. Intestines were gently replaced into the abdomen and the abdominal wound was stitched closed under sterile conditions. • 1. Rat was allowed to recover from isofluorane anaesthesia. • 2. Test compounds (or vehicle) were administered intravenously via previously implanted jugular catheter. • 3. Immediate intragastric gavage of methylcellulose (2%) labeled with radioactive ^99mTc, T=0. • 1. At t=15 min, animal was euthanized with CO2. • 2. Stomach and 10 cm sections along the small intestine were immediately ligated, cut and placed in tubes for measuring of ^99mTc in gamma counter. • 3. Stomach emptying and small intestinal transit were measured by calculation of the geometric mean. Geometric mean=Σ(% total radioactivity×number of segment)/100 • 1. Model adapted from Kälff et al. (1998), Ann Surg 228:652-63. • 2. Rats (male, Sprague-Dawley, 250-300 g) were implanted with jugular vein catheters to accommodate dosing of test articles. • 3. Rats were fasted O/N, anesthetized with isofluorane and subjected to abdominal surgery. • 4. Following an abdominal incision, the smalt intestine caecum and large intestine were eviscerated for a period of 15 min and kept moist with saline. • 5. […] Radioactivity (^99mTc) in each tissue isolate was measured as a means of measuring the transit of the meal.

In the case of `CC1C(=O)NC(Cc2ccc(F)cc2)C(=O)NCCCc2ccccc2O[C@H](C)CNC(C2CC2)C(=O)N1C` (some centres unmarked) [compound 298], the opioid-delayed gastrointestinal transit [1] is reported as “effectively reversed in a dose-dependent manner”, the IGF-1 levels ([2]; 1000 μg/kg dose) is reported as “No changes in IGF-1 levels” and the “effect on GH release” value ([2]; FIG. 9) is reported as “lack of effect on GH release”. The “effect on ghrelin-induced GH release” value ([2]; dosed 10 min. prior to ghrelin, FIG. 12B) was “neither inhibits nor augments ghrelin-induced GH release”, the “pulsatile GH release in comparison to vehicle controls” value ([2]; doses up to 1000 μg/kg i.v.) was “no significant difference in pulsatile GH release” and the “promotion of GI transit (geometric center of the meal) vs POI+vehicle” value ([3]; 100 μg/kg (i.v.)) was 2.7 ×. For the same compound, the “effect on postoperative ileus vs POI+vehicle treated rats” value ([3]; 100 μg/kg i.v., n=5, FIG. 8) was “significantly improves postoperative ileus” and the “gastric emptying and intestinal transit in POI rats” value ([3]; 100 and 300 μg/kg (i.v.)) was “significantly increased gastric emptying and intestinal transit”.
